Calls of active or inactive are those of the source. The calls are words filed in the database; no cut-off is given here.
Experiments:
[1] = target: Mu-type opioid receptor (Mus musculus) (UniProt P42866); details: BALB/c, Brain, Membrane, at 5 µM
Description: Displacement of [3H]DAMGO from mu opioid receptor in BALB/c mouse brain membrane at 5 uM by liquid scintillation counting relative to control

[2] = target: Kappa-type opioid receptor (Mus musculus) (UniProt P33534); assay: Displacement of [125I]dynorphin from kappa opioid receptor in BALB/c mouse brain membrane at 5 uM by liquid scintillation counting relative to control; type: cell membranes
[3] = target: Kappa-type opioid receptor (Rattus norvegicus) (UniProt P34975); assay: Agonist activity at kappa opioid receptor in rat C6 cells assessed as induction of ERK1/2 phosphorylation at 40 uM after 10 min by Western blot analysis in presence of KOP antagonist norBNI; type: functional, cell-based
[4] = target: Kappa-type opioid receptor (Mus musculus, UniProt P33534); assay: Displacement of [125I]dynorphin from kappa opioid receptor in BALB/c mouse brain membrane by liquid scintillation counting; type: cell membranes
Sequence of Kappa-type opioid receptor (P33534 whole entry): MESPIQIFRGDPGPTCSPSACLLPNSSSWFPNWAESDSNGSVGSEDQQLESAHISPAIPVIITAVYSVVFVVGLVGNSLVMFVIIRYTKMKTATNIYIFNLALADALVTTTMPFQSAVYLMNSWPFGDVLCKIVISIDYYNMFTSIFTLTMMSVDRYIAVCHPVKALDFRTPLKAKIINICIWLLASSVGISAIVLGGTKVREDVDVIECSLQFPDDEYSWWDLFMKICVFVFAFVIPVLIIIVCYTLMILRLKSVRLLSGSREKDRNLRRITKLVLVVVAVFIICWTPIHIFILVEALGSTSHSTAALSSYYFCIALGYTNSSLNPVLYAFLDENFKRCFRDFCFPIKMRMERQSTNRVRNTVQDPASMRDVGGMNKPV

Sequence of Mu-type opioid receptor (Mus musculus) (P42866 whole entry): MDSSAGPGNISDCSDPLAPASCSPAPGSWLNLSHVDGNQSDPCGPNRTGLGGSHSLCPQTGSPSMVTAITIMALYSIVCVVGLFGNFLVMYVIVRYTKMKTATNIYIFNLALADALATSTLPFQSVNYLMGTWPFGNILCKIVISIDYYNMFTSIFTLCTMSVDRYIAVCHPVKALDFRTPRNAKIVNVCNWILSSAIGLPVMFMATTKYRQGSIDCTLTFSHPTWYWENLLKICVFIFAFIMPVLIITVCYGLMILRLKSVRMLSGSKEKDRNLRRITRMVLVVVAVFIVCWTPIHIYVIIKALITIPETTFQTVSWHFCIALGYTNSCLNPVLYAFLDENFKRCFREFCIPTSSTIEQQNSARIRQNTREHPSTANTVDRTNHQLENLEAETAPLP
Sequence of Kappa-type opioid receptor (Mus musculus) (P33534 whole entry): as the sequence (P33534 whole entry) above
Sequence of Kappa-type opioid receptor (Rattus norvegicus) (P34975 whole entry): as the sequence (P33534 whole entry) above, with D11E, S17A, S51P, A308V counted along it

Compound	residual activity [1]	residual activity [2]	Activity [3]	IC50 [4]
COc1ccc(N2Cc3cccc(OC)c3OCc3ccccc32)cc1	90%	81%		
COc1ccccc1N1Cc2cccc(OC)c2OCc2ccccc21	89%	119%		
c1ccc(N2Cc3ccccc3OCc3ccccc32)cc1	80%	87%		
COc1ccc(N2Cc3ccccc3OCc3ccccc32)cc1	86%	81%		
COc1ccc(N2Cc3cccc(OC)c3OCc3cc4c(cc32)OCO4)cc1	138%	101%		
COc1cccc2c1OCc1cc3c(cc1N(c1ccccc1)C2)OCO3	78%	101%		
COc1ccc2c(c1)COc1ccccc1CN2c1ccccc1	99%	29%	inactive	2170 nM
